Assay results reported in patent US11325921B2, “Optically active crosslinked cyclic secondary amine derivative” (Sumitomo Dainippon Pharma Co., Ltd., priority 2018, dated 2022).
Read-outs that look alike come from different tables or passages of the source.

Assays:
[1] = target: Menin-MLL binding (His-Menin1-615 / MLL1-172-FLAG) (Homo sapiens (Human), UniProt O00255); experiment: Test 1: inhibition of the Menin-MLL binding (HTRF); details: for Menin-MLL binding inhibition activity (in words): summary of the table
Description: Menin1-615 wherein 6× His tag and HA tag are inserted in the N-terminus, and myc tag is inserted in the C-terminus (hereinafter, referred to as His-Menin1-615), was diluted with an assay buffer (25 mmol/L HEPES, 150 mmol/L NaCl, 1 mmol/L dithiothreitol, 0.5% (w/v) Tween 80, 0.3% (w/v) BSA, 0.3% (w/v) skim milk) to adjust the final concentration Lo 30 nmol/L. The test compounds were also diluted with the assay buffer to adjust each concentration of the test compounds to 0.005 to 5 μmol/L. The prepared His-Menin1-615 and test compounds were added to a light-shielding 384-well low-volume plate (Corning, #4514) in 2 μL/well and 6 μL/well, respectively, and the plate was covered with a lid for light-shielding (Corning, r-3935), and incubated at room temperature for 3 hours. After the incubation, MLL1-172 wherein FLAG tag is inserted in the C-terminus (MLL1-172-FLAG), was separately diluted with the assay buffer to adjust the final concentration to 50 nmol/L. The prepared MLL1-172-FLAG was added to the above plate in 2 μL/well, and the plate was covered with a lid for light-shielding and incubated at room temperature for an hour.
Then, anti-6HIS-d2 antibody (cisbio, 61HISDLA) and anti-FLAGM2-K antibody (cisbio, 61FG2KLA) were diluted with an antibody dilution buffer (50 mmol/L Tris, 150 mmol/L NaCl, 800 mmol/L KF, pH 7.4) to adjust the final concentration to 1.4 μg/mL to prepare an antibody mixture. The prepared antibody mixture was added to the above plate in 10 μL/well, and the plate was covered with a lid and incubated at 4° C. for 17 to 24 hours. After the incubation, the signal was detected with RUBYstar (BMG LABTECH). The binding inhibition rate (%) at each concentration of the test compounds was calculated from the following formula, and the IC50 value was obtained, that corresponds to the concentration of the test compound at which the binding inhibition rate is 50%.

[2] = test system: HOXA9 mRNA in MV4; 11 cells; experiment: Test 3: inhibition of mRNA transcription, HOXA9; assay type: cell-based; details: 20 to 24 hours, fitted with GAPDH; for mrna remaining at 1 µM: Homo sapiens, read-out: mRNA at 1 μM (% control) HOXA9
Description: (§1) MV4; 11 cells were obtained from American Type Culture Collection (ATCC). The cells were cultured at 37° C. in the presence of 5% CO2 in RPMI 1640 medium containing 10% fetal bovine serum and 1% penicillin/streptomycin. To the MV4; 11 cells was added each test compound to adjust the final concentration to 1 μmol/L, and the cells were cultured at 37° C. in the presence of 5% CO2 for 20 to 24 hours. After the incubation, the total RNA was extracted from the cells with RNeasy™ Mini Kit (QIAGEN, 74106), and cDNA was synthesized with Superscript™ VILO™ cDNA Synthesis Kit (Invitrogen, #11754250). By using TaqMan™ Gene Expression Master Mix (Applied Biosystems, 4369016) and TaqMan™ probe (Applied Biosystems), the expression level of mRNA was quantified from the obtained cDNA with 7900HT (Applied biosystems). The mRNA expression level of each obtained gene was fitted with the expression level of mRNA of GAPDH.

RS4; 11 cells = experiment: Test 2: inhibition of cell proliferation, RS4; 11; assay type: cell-based; details: for cell proliferation inhibition activity (in words, good) / cell proliferation inhibitory activity (in words, potent): 11 and MOLM-13 cells, summary of the table; for cell proliferation inhibitory activity (in words, potent): 'especially'; for IC50: 11 cells, cultured 7 days, PrestoBlue
Description: (§2) RS4; 11 cells were obtained from American Type Culture Collection (ATCC). The cells were cultured at 37° C. in the presence of 5% CO2 in RPMI 1640 medium containing 10% fetal bovine serum and 1% penicillin/streptomycin. MOLM-13 cells were separately obtained from DSMZ. The cells were cultured at 37° C. in the presence of 5% CO2 in RPMI 1640 medium containing 20% fetal bovine serum and 1% penicillin/streptomycin.
(§3) The cells were plated to a 96-well plate in 2000 cells/well, each test compound was added thereto to adjust the final concentration of DMSO to 0.1% of DMSO, and the cells were cultured for 7 days. After the cultivation, the cell viability was calculated with PrestoBlue™ Cell Viability Reagent (Invitrogen, A13261). The IC50 value was calculated from a survival curve, that corresponds to the concentration of the test compound at which the cell proliferation inhibition rate is 50%.

[3] = Test 4: pharmacokinetic study; assay type: in vivo; details: male SD rat, oral, 10 mg/kg; for AUC(0-t): plasma, 24 hours; for compound-exposure in plasma (in words): summary of the table
Description: The test compound suspended in 0.5% methylcellulose was orally administered to 7-week-old male SD rat in a dose of 10 mg/kg. The blood sample was taken from jugular vein without anesthesia over time for 24 hours. The blood sample was centrifuged to obtain plasma. The plasma was pre-treated by methanol extraction method, and then analyzed with an LC-MS/MS to determine the concentration of the test compound. Based on the data from 0 hour after the administration until the time (t) when there was the final detection in the plasma, AUC was calculated by trapezoidal method.

[4] = test system: MEIS1 mRNA in MV4; 11 cells; experiment: Test 3: inhibition of mRNA transcription, MEIS1; assay type: cell-based; details: for mrna remaining at 1 µM: Homo sapiens, read-out: mRNA at 1 μM (% control) MEIS1; for mRNA transcription inhibition activity (in words): MEIS1 and HOXA9, MV4, 1 μM, summary of the table
Description: as §1

MOLM-13 cells = experiment: Test 2: inhibition of cell proliferation, MOLM-13; assay type: cell-based; details: cultured 7 days, PrestoBlue
Description: as §2, §3

[5] = MV4, 20 to 24 hours, fitted with GAPDH

Menin-MLL binding (His-Menin1-615 / MLL1-172-FLAG), sequence (O00255 other isoform, or with tags, fused parts or gaps): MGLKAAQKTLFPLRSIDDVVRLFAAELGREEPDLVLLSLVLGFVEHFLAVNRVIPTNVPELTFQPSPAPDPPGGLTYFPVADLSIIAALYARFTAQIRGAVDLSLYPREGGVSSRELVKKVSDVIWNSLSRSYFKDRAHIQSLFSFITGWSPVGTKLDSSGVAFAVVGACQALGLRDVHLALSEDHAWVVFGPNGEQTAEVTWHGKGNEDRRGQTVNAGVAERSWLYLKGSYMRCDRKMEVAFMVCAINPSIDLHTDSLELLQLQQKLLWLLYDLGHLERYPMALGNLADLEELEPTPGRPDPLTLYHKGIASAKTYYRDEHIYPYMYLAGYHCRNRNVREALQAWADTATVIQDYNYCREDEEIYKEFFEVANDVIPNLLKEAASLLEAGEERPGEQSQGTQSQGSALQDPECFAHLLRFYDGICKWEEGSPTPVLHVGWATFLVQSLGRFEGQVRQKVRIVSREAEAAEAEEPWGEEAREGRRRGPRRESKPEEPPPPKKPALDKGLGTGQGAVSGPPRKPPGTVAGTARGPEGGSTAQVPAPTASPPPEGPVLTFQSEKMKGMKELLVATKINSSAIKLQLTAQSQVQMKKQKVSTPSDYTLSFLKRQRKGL

Row | Compound | IC50 [1] [nM] | Menin-MLL binding inhibition activity (in words) [1] | mrna remaining at 1 µM [2] [%] | cell proliferation inhibition activity (in words, good) (RS4; 11 cells) | cell proliferation inhibitory activity (in words, potent) (RS4; 11 cells) | IC50 (RS4; 11 cells; Homo sapiens, 168 h) [nM] | AUC(0-t) ([3]; read-out: AUC0-t) [ng·h/mL] | compound-exposure in plasma (in words) [3] | mrna remaining at 1 µM [4, 5] [%] | mRNA transcription inhibition activity (in words) [4] | IC50 (MOLM-13 cells; Homo sapiens, 168 h) [nM] | mRNA at 1 μM (% control) HOXA9 [2] [% control] | IC50 (RS4; 11 cells) [nM] | AUC(0-t) [3] [ng·h/mL] | mRNA at 1 μM (% control) MEIS1 [4, 5] [% control] | IC50 (MOLM-13 cells) [nM]
1 | O=C([C@H]1N[C@H]2CC[C@@H]1[C@@H](F)C2)N1CC2(C1)CN(c1c(C(F)(F)F)cnc3sc(CC(F)(F)F)cc13)C2 [Example 1, {(1S,3S,4S,5S)-5-Fluoro-2-azabicyclo[2.2.2]octan-3-yl}{6-[2-(2,2,2-trifluoroethyl)-5-(trifluoromethyl)thieno[2,3-b]pyridin-4-yl]-2,6-diazaspiro[3.3]heptan-2-yl}methanone] | 13.3 | potent | 43.3 | good | potent | 90 | 2410 | good compound-exposure in plasma | 18 | showed the mRNA transcription inhibition activity | 80 | – | – | – | – | –
2 | N#Cc1cnc2sc(CC(F)(F)F)cc2c1N1CC2(CN(C(=O)[C@H]3N[C@H]4CC[C@@H]3C(F)(F)C4)C2)C1 [Example 23, 4-{6-[(1S,3S,4S)-5,5-difluoro-2-azabicyclo[2.2.2]octane-3-carbonyl]-2,6-diazaspiro[3.3]heptan-2-yl}-2-(2,2,2-trifluoroethyl)thieno[2,3-b]pyridine-5-carbonitrile] | 11 | – | 49.3 | – | – | 280 | 668 | – | 45.4 | – | 290 | – | – | – | – | –
3 | 4-{6-[(1S,3S,4S,5S)-5-fluoro-2-azabicyclo[2.2.2]octane-3-carbonyl]-2,6-diazaspiro[3.3]heptan-2-y}-2-(2,2,2-trifluoroethyl)thieno[2,3-b]pyridine-5-carbonitrile [Example 22] | 6.2 | potent | – | good | potent | – | – | – | – | showed the mRNA transcription inhibition activity | – | 37.0 | 100 | 244 | 18.1 | 90
4 | O=C([C@H]1NC2CCC1CC2)N1CC2(C1)CN(c1c(C(F)(F)F)cnc3sc(CC(F)(F)F)cc13)C2 [Example 3, [(3S)-2-azabicyclo[2.2.2]octan-3-yl]{6-[2-(2,2,2-trifluoroethyl)-5-(trifluoromethyl)thieno[2,3-b]pyridin-4-yl]-2,6-diazaspiro[3.3]heptan-2-yl}methanone] | 31.8 | – | 32 | – | – | 200 | 1210 | good compound-exposure in plasma | 18.7 | – | 210 | – | – | – | – | –
5 | O=C([C@H]1N[C@@H]2CC[C@H]1C2)N1CC2(C1)CN(c1c(C(F)(F)F)cnc3sc(CC(F)(F)F)cc13)C2 [Example 2, [(1R,3S,4S)-2-azabicyclo[2.2.1]heptan-3-yl]{6-[2-(2,2,2-trifluoroethyl)-5-(trifluoromethyl)thieno[2,3-b]pyridin-4-yl]-2,6-diazaspiro[3.3]heptan-2-yl}methanone] | 17.8 | – | 34.3 | – | – | 200 | 1960 | good compound-exposure in plasma | 32 | – | 260 | – | – | – | – | –
6 | O=C([C@H]1N[C@H]2C[C@@H]1[C@@H](F)C2)N1CC2(C1)CN(c1c(C(F)(F)F)cnc3sc(CC(F)(F)F)cc13)C2 [Example 9, [(1S,3S,4S,5S)-5-fluoro-2-azabicyclo[2.2.1]heptan-3-yl]{6-[2-(2,2,2-trifluoroethyl)-5-(trifluoromethyl)thieno[2,3-b]pyridin-4-yl]-2,6-diazaspiro[3.3]heptan-2-yl}methanone] | 31.7 | – | 49.4 | – | – | 170 | 3750 | good compound-exposure in plasma | 34.2 | – | 280 | – | – | – | – | –
